From article PMC9821961, “Ring-Modified Histidine-Containing Cationic Short Peptides Exhibit Anticryptococcal Activity by Cellular Disruption” (Molecules, 2022) come the findings set out here.

As usually defined, the IC50 is the concentration that inhibits the measured activity by half.

Holding throughout (test): microbe, parasite or virus in culture
One assay relates to C. neoformans. Format: cell-based, Cryptococcus neoformans. The text has this: (§1) Microbial strains: Microbial strains were procured from National Culture Collection of Pathogenic Fungi (NCCPF) at the Postgraduate Institute of Medical Education & Research (PGIMER), Chandigarh and Microbial Type Culture Collection and Gene bank (MTCC) at the Institute of Microbial Technology (IMTECH), Chandigarh, India. Peptides were screened against five different strains of fungi: viz. Candida albicans (NCCPF400034), Candida glabrata (MTCC 3019), Candida parapsilosis (NCCPF 440002), Candida krusei (NCCPF 440002) and Cryptococcus neoformans (NCCPF250316), and five strains of bacteria: viz. Escherichia coli (MTCC 2961), Staphylococcus aureus (MTCC 3160), Enterococcus faecalis (MTCC 439), Streptococcus pyogenes (MTCC 442) and Pseudomonas aeruginosa (MTCC 3542).
(§2) Growth media: Antifungal susceptibility testing was carried out using standard broth microdilution assays as per the Clinical and Laboratory Standards Institute (CLSI) guidelines for fungi. RPMI 1640 (Sigma), yeast extract, peptone and dextrose (YPED, Himedia) were used as the incubation broths. The cells were diluted to a cell density of 10^3 colony forming unit (CFU/mL) and incubated at 30 °C for 48 h. Furthermore, Muller Hinton (Himedia) media was utilized for bacterial strains and antibacterial activity was evaluated per CLSI guidelines for bacteria. Bacterial cells were diluted to a cell density of 10^5 CFU/mL and incubated at 37 °C for 24 h. Amphotericin B (Himedia, India) and rifampicin (Himedia, India) were used as standard drugs for the evaluation of activity against all the fungal and bacterial strains, respectively.
(§3) The stock solutions of peptides (2 mg/mL) were prepared in DMSO. Specific amounts of peptide from stock solution were added to a 96-well microtiter plate containing 100 μL of growth media and then serially diluted two-fold. A further 100 μL of growth media containing microbial cells were added to each well and incubated at 30–37 °C for 24–48 h. The optical density (OD) was measured at 600 nm using a BioStack Ready (BioTek Instruments, Winooski, VT, USA) microplate reader to analyze microbial growth inhibition, and IC50 and MIC values were calculated. To visualize the growth and inhibition pattern, a solution of 3-(4,5-dimethylthiazol-2-yl)-2,5-diphenyltetrazolium bromide (MTT) in water was added to the plate and incubated for 2–3 h. MTT reacts with the mitochondrial dehydrogenases, which are present only in a viable cell, to give blue colored formazan crystals. Therefore, a darker color indicates a high number of viable cells; however, non-viable cells appear pale or colorless.

In another assay the test system is C. glabrata. It counts as cell-based, Candida glabrata. The following applies: 48 h.
Excerpt: as §1, §2, §3

Another assay relates to C. krusei. It counts as cell-based, Candida krusei. The settings on record: 48 h.
Excerpt: as §1, §2, §3

In a further assay the test system is C. albicans. It counts as cell-based, Candida albicans. The settings on record: 48 h.
Excerpt: as §1, §2, §3

The next assay concerns C. parapsilosis. Format: cell-based, Candida parapsilosis. The settings on record: 48 h.
Excerpt: as §1, §2, §3

[1] abbreviates: C. neoformans, lowest test concentration with no detectable growth.

Converted amounts (≈) assume the structure as drawn.

Take `COC(=O)[C@H](Cc1ncn(Cc2ccccc2I)c1I)NC(=O)[C@H](Cc1c[nH]c2ccccc12)NC(=O)OC(C)(C)C` [9o]: the IC50 in the assay on C. neoformans (48 h), in the assay on C. glabrata, in the assay on C. krusei, in the assay with C. albicans and in the assay on C. parapsilosis was above 35.2 µg/mL in each case. The MIC against C. neoformans (48 h), with C. glabrata, in the assay on C. krusei, with C. albicans and against C. parapsilosis was above 64.0 µg/mL throughout.

Regarding `COC(=O)[C@H](Cc1ncn(Cc2ccccc2C(F)(F)F)c1I)NC(=O)[C@H](Cc1c[nH]c2ccccc12)NC(=O)OC(C)(C)C` [9f], the IC50 in the assay with C. neoformans (48 h) was 30.56 µg/mL (≈ 41.3 µM); in the assay on C. glabrata it was above 35.2 µg/mL; in the assay with C. krusei it was above 35.2 µg/mL; in the assay with C. albicans, above 35.2 µg/mL; in the assay on C. parapsilosis, above 35.2 µg/mL. Further, the MIC in the assay on C. neoformans (48 h) was 55.57 µg/mL (≈ 75.1 µM); in the assay on C. glabrata, above 64.0 µg/mL; against C. krusei it was above 64.0 µg/mL; with C. albicans it was above 64.0 µg/mL; in the assay with C. parapsilosis, above 64.0 µg/mL.

On to `COC(=O)[C@H](Cc1ncn(Cc2cccc(F)c2)c1I)NC(=O)[C@H](Cc1c[nH]c2ccccc12)NC(=O)OC(C)(C)C` [9k], for which the IC50 in the assay with C. neoformans (48 h) is 18.16 µg/mL (≈ 26.3 µM); in the assay on C. glabrata, above 35.2 µg/mL; in the assay with C. krusei, above 35.2 µg/mL; in the assay on C. albicans, above 35.2 µg/mL; with C. parapsilosis it was above 35.2 µg/mL. Moreover, the MIC against C. neoformans (48 h) was 32.02 µg/mL (≈ 46.4 µM); against C. glabrata, above 64.0 µg/mL; in the assay on C. krusei, above 64.0 µg/mL; in the assay with C. albicans, above 64.0 µg/mL; in the assay with C. parapsilosis, above 64.0 µg/mL.

As to `COC(=O)[C@H](Cc1ncn(Cc2cccc(Br)c2)c1I)NC(=O)[C@@H](N)Cc1c[nH]c2ccccc12` [10m], the concentration for half-maximal inhibition (IC50) was 9.23 µg/mL (≈ 14.2 µM) with C. neoformans (48 h); above 35.2 µg/mL with C. glabrata; above 35.2 µg/mL with C. krusei; above 35.2 µg/mL with C. albicans; above 35.2 µg/mL in the assay on C. parapsilosis. For the same compound, the MIC is 16.79 µg/mL (≈ 25.8 µM) in the assay with C. neoformans (48 h); above 64.0 µg/mL in the assay on C. glabrata; above 64.0 µg/mL with C. krusei; above 64.0 µg/mL against C. albicans; above 64.0 µg/mL against C. parapsilosis.

As for `COC(=O)[C@H](Cc1ncn(Cc2ccc(C(C)(C)C)cc2)c1I)NC(=O)[C@H](Cc1c[nH]c2ccccc12)NC(=O)OC(C)(C)C` [9b], the IC50 in the assay with C. neoformans (48 h), with C. glabrata, in the assay with C. krusei, in the assay on C. albicans and in the assay with C. parapsilosis was above 35.2 µg/mL throughout. For the same compound, the MIC against C. neoformans (48 h), in the assay with C. glabrata, in the assay on C. krusei, with C. albicans and in the assay on C. parapsilosis was above 64.0 µg/mL each time.

For `COC(=O)[C@H](Cc1ncn(Cc2ccc([N+](=O)[O-])cc2)c1I)NC(=O)[C@H](Cc1c[nH]c2ccccc12)NC(=O)OC(C)(C)C` [9h], the IC50 with C. neoformans (48 h), in the assay with C. glabrata, with C. krusei, in the assay with C. albicans and in the assay on C. parapsilosis was above 35.2 µg/mL in each case. Moreover, the MIC with C. neoformans (48 h), with C. glabrata, with C. krusei, in the assay on C. albicans and against C. parapsilosis was above 64.0 µg/mL in each case.

Consider `COC(=O)[C@H](Cc1ncn(Cc2ccc(C(F)(F)F)cc2)c1I)NC(=O)[C@@H](N)Cc1c[nH]c2ccccc12` [10g], for which the IC50 was 13.53 µg/mL (≈ 21.2 µM) with C. neoformans (48 h); above 35.2 µg/mL in the assay with C. glabrata; above 35.2 µg/mL in the assay with C. krusei; above 35.2 µg/mL with C. albicans; above 35.2 µg/mL in the assay with C. parapsilosis. In addition, the MIC in the assay on C. neoformans (setting [1]) is 24.6 µg/mL (≈ 38.5 µM); with C. glabrata it was above 64.0 µg/mL; in the assay on C. krusei it was above 64.0 µg/mL; with C. albicans, above 64.0 µg/mL; in the assay with C. parapsilosis, above 64.0 µg/mL. Moreover, in the assay on C. neoformans (C. neoformans, on replacing methyl of the tert-butyl moiety with fluorine), the “Fold reduction of activity” value was found to be 2.6 fold.

For `COC(=O)[C@H](Cc1ncn(Cc2ccc(C(F)(F)F)cc2)c1I)NC(=O)[C@H](Cc1c[nH]c2ccccc12)NC(=O)OC(C)(C)C` [9g], the IC50 in the assay with C. neoformans (48 h), in the assay on C. glabrata, with C. krusei, with C. albicans and in the assay on C. parapsilosis was above 35.2 µg/mL throughout. In addition, the MIC in the assay with C. neoformans (48 h), in the assay on C. glabrata, with C. krusei, against C. albicans and against C. parapsilosis was above 64.0 µg/mL throughout.

Take `COC(=O)[C@H](Cc1ncn(Cc2cccc(Br)c2)c1I)NC(=O)[C@H](Cc1c[nH]c2ccccc12)NC(=O)OC(C)(C)C` [9m]: the concentration for half-maximal inhibition (IC50) in the assay with C. neoformans (48 h) is 18.63 µg/mL (≈ 24.8 µM); in the assay with C. glabrata it was above 35.2 µg/mL; in the assay on C. krusei, above 35.2 µg/mL; in the assay with C. albicans, above 35.2 µg/mL; in the assay on C. parapsilosis, above 35.2 µg/mL. Also, the MIC against C. neoformans (48 h) is 33.88 µg/mL (≈ 45.1 µM); in the assay on C. glabrata it was above 64.0 µg/mL; against C. krusei, above 64.0 µg/mL; with C. albicans it was above 64.0 µg/mL; in the assay on C. parapsilosis it was above 64.0 µg/mL.

For the compound `COC(=O)[C@H](Cc1ncn(Cc2ccc(F)c(F)c2)c1I)NC(=O)[C@@H](N)Cc1c[nH]c2ccccc12` [10i], the IC50 in the assay on C. neoformans (48 h) is 10.28 µg/mL (≈ 16.9 µM); in the assay on C. glabrata it was above 35.2 µg/mL; in the assay on C. krusei, above 35.2 µg/mL; in the assay with C. albicans, above 35.2 µg/mL; in the assay on C. parapsilosis, above 35.2 µg/mL. In addition, the MIC with C. neoformans (setting [1]) was 18.7 µg/mL (≈ 30.8 µM); in the assay with C. glabrata, above 64.0 µg/mL; with C. krusei it was above 64.0 µg/mL; in the assay with C. albicans, above 64.0 µg/mL; in the assay with C. parapsilosis it was above 64.0 µg/mL.

`COC(=O)[C@H](Cc1ncn(Cc2ccc(F)c(F)c2)c1I)NC(=O)[C@H](Cc1c[nH]c2ccccc12)NC(=O)OC(C)(C)C` [9i]: the IC50 is 17.62 µg/mL (≈ 24.9 µM) with C. neoformans (48 h); above 35.2 µg/mL in the assay on C. glabrata; above 35.2 µg/mL in the assay with C. krusei; above 35.2 µg/mL with C. albicans; above 35.2 µg/mL with C. parapsilosis. Moreover, the MIC in the assay on C. neoformans (48 h) is 32.05 µg/mL (≈ 45.3 µM); against C. glabrata, above 64.0 µg/mL; in the assay on C. krusei, above 64.0 µg/mL; against C. albicans, above 64.0 µg/mL; against C. parapsilosis, above 64.0 µg/mL.

`COC(=O)[C@H](Cc1ncn(Cc2ccccc2C(F)(F)F)c1I)NC(=O)[C@@H](N)Cc1c[nH]c2ccccc12` [10f]: the IC50 is 17.70 µg/mL (≈ 27.7 µM) with C. neoformans (48 h); above 35.2 µg/mL in the assay on C. glabrata; above 35.2 µg/mL in the assay with C. krusei; above 35.2 µg/mL in the assay on C. albicans; above 35.2 µg/mL in the assay with C. parapsilosis. For the same compound, the MIC was 32.18 µg/mL (≈ 50.3 µM) against C. neoformans (48 h); above 64.0 µg/mL in the assay on C. glabrata; above 64.0 µg/mL in the assay on C. krusei; above 64.0 µg/mL with C. albicans; above 64.0 µg/mL with C. parapsilosis.

In the case of `COC(=O)[C@H](Cc1ncn(Cc2cccc(Cl)c2)c1I)NC(=O)[C@H](Cc1c[nH]c2ccccc12)NC(=O)OC(C)(C)C` [9l], the IC50 with C. neoformans (48 h) was 18.59 µg/mL (≈ 26.3 µM); in the assay on C. glabrata it was above 35.2 µg/mL; with C. krusei, above 35.2 µg/mL; in the assay on C. albicans, above 35.2 µg/mL; in the assay with C. parapsilosis it was above 35.2 µg/mL. For the same compound, the MIC was 33.80 µg/mL (≈ 47.9 µM) with C. neoformans (48 h); above 64.0 µg/mL against C. glabrata; above 64.0 µg/mL against C. krusei; above 64.0 µg/mL with C. albicans; above 64.0 µg/mL with C. parapsilosis.
